Like-named read-outs stand apart in the source and are kept apart here.
Legend:
[1] = Study 3: concentrations in plasma, epithelial lining fluid (ELF) and alveolar macrophages (AM) after 800 mg once daily for three days; assay type: in vivo, human; conditions: for Kp / Kp at 3 h / Kp at 6 h / Kp at 9 h / Kp at 12 h / Kp at 24 h / Kp at 48 h: both sexes, human; for Kp: oral, range over the 48-hour period after drug administration, 800 mg once daily for 3 days; for Kp at 3 h / Kp at 6 h / Kp at 9 h / Kp at 12 h / Kp at 24 h / Kp at 48 h: healthy subjects, 800 mg oral once daily for 3 days, mean ± SD; for Kp at 3 h: sampling time 3 hr after third dose; for Kp at 6 h: sampling time 6 hr after third dose; for Kp at 9 h: sampling time 9 hr after third dose; for Kp at 12 h: sampling time 12 hr after third dose; for Kp at 24 h: sampling time 24 hr after third dose; for Kp at 48 h: sampling time 48 hr after third dose
Description: Healthy male and female subjects 18 years of age or older who met the study entry criteria were enrolled into the pharmacokinetic study. Each subject received 800 mg (2 tablets of 400 mg) of compound of Formula (I) administered once daily for three days, with 240 ml of drinking water at a consistent time within two hours after a standard meal and direct observation at the study site. Blood samples were collected to measure concentration of compound of Formula (I) in plasma at 3, 6, 9, 12, 24, and 48 hours following the third dose of compound of Formula (I). Similarly, bronchoscopy was done to measure concentration of compound of Formula (I) in epithelial lining fluid (ELF) and alveolar macrophages (AM) 3, 6, 9, 12, 24, and 48 hours following the third dose of compound of Formula (I). The mean (±SD) concentrations of compound of Formula (I) in plasma (total), ELF, and AM at the bronchopulmonary sampling times are illustrated in FIG. 4. […] Table 1 gives the mean (±SD) ratios of compound of Formula (I) in ELF or AM to the simultaneous total plasma concentrations. The mean ratios of ELF and AM to simultaneous total plasma concentration for compound of Formula (I) during the 48-hour period after drug administration ranged from 10 to 30 and 270 to 800, respectively.

[2] = Study 2: Phase 1 multiple ascending dose, drug concentrations in plasma and polymorphonuclear leukocytes (PMN); assay type: in vivo, human; conditions: healthy subjects, 600, 800 and 1000 mg once daily day 1 to day 7; sampling day 1 and day 7
Description: A Phase 1, randomised, double-blind, single center, placebo controlled sequential cohort study in a maximum of 3 cohort of 10 healthy male and/or female subject each was conducted. Subjects received ascending multiple doses of compound of Formula (I) (600, 800 and 1000 mg) or matching placebo once daily on day 1 to day 7. Blood sampling was performed on day 1 and day 7 to determine the drug concentrations in plasma and polymorphonuclear leukocytes (PMN) (FIG. 2 and FIG. 3). […] Blood sampling was also undertaken at intermittent days to determine the number of doses required to attain the steady state.

[3] = alveolar macrophages (AM) / plasma (total), read-out: AM to Plasma (Total) concentration ratio
[4] = epithelial lining fluid (ELF) / plasma (total), read-out: ELF to Plasma (Total) concentration ratio

Kp ([1]; alveolar macrophages (AM) / plasma (total), read-out: mean ratio of AM to simultaneous total plasma concentration): 270 to 800
Kp at 3 h [1, 3]: 274 ± 187
Kp at 6 h [1, 3]: 378 ± 172
Kp at 9 h [1, 3]: 383 ± 260
Kp at 12 h [1, 3]: 791 ± 614
Kp at 24 h [1, 3]: 486 ± 193
Kp at 48 h [1, 3]: 428 ± 189
Kp ([1]; epithelial lining fluid (ELF) / plasma (total), read-out: mean ratio of ELF to simultaneous total plasma concentration): 10 to 30
Kp at 3 h [1, 4]: 17 ± 12
Kp at 6 h [1, 4]: 14.5 ± 8.8
Kp at 9 h [1, 4]: 10.4 ± 6.5
Kp at 12 h [1, 4]: 12.4 ± 9.3
Kp at 24 h [1, 4]: 17.6 ± 6.2
Kp at 48 h [1, 4]: 27.2 ± 6.5
SMILES: CC[C@@H]1OC(=O)[C@H](C)C(=O)[C@H](C)[C@@H](OC2O[C@H](C)C[C@H](N(C)C)[C@H]2O)[C@](C)(OC)C[C@@H](C)C(=O)[C@H](C)[C@H]2[C@H](/C(N)=N/O[C@@H](C)c3nnc(-c4ccccn4)s3)C(=O)O[C@@]21C (stereo partly shown) [compound of Formula (I)]
concentrations in ELF and AM compared with simultaneous plasma concentrations ([1]; oral 800 mg, throughout the 48-hour period after 3 days of once-daily dosing): significantly higher in ELF and AM than simultaneous plasma concentrations
accumulation in polymorphonuclear leukocytes (PMN) in comparison to plasma [2]: accumulated more in polymorphonuclear leukocytes (PMN) in comparison to plasma
